Results: ChEMBL document CHEMBL5352429, “Designed symmetrical β-hairpin peptides for treating multidrug-resistant salmonella typhimurium infections” (Eur J Med Chem, 2022)
Converted amounts (≈) assume the structure as drawn. The source made the active and inactive calls. No cut-off for these calls is given here. Peptide text beside a SMILES is read from it.

Assays:
Salmonella typhimurium [1] = assay: Antibacterial activity against Salmonella typhimurium DT104 infected in ICR mouse model assessed as alleviation of intestinal mucosal damage at 20 mg/kg, ip administered for 3 days and measured on day 7 by H&E staining based analysis; type: functional, organism-based; conditions: Salmonella enterica subsp. enterica serovar Typhimurium, time 7.0 day
Salmonella typhimurium [2] = assay: Antibacterial activity against Salmonella typhimurium DT104 infected in ICR mouse model assessed as body weight gain at 2 mg/kg, ip administered for 3 days and measured from day 4 to day 7; type: functional, organism-based; conditions: Salmonella enterica subsp. enterica serovar Typhimurium, time 7.0 day
Salmonella typhimurium [3] = assay: Antibacterial activity against Salmonella typhimurium CICC 21483 incubated overnight by standard microtiter dilution method; type: functional, Salmonella enterica subsp. enterica serovar Typhimurium; conditions: Salmonella enterica
Cell membrane [4] = assay: Induction of membrane damage in Salmonella typhimurium DT104 assessed as substantial damage to bacterial envelope at 1 times of MIC incubated for 60 mins by transmission electron microscopic analysis; type: subcellular; conditions: Salmonella enterica subsp. enterica serovar Typhimurium
Cell membrane [5] = assay: Induction of membrane damage in Salmonella typhimurium DT104 assessed as membrane stunting at 1 times of MIC incubated for 60 mins by atomic force microscopic analysis; type: subcellular; conditions: Salmonella enterica subsp. enterica serovar Typhimurium
Salmonella typhimurium [6] = assay: Antibacterial activity against Salmonella typhimurium CICC 21913 incubated overnight by standard microtiter dilution method; type: functional, Salmonella enterica subsp. enterica serovar Typhimurium; conditions: Salmonella enterica
Salmonella typhimurium [7] = assay: Antibacterial activity against Salmonella typhimurium DT104 assessed as reduction in IL-4 mRNA level in ileum at 20 mg/kg, ip administered for 3 days and measured on day 7 by RT-PCR analysis; type: functional, organism-based; conditions: Salmonella enterica subsp. enterica serovar Typhimurium, time 7.0 day
Salmonella typhimurium [8] = assay: Antibacterial activity against Salmonella typhimurium DT104 assessed as reduction in IL-8 production in serum at 20 mg/kg, ip administered for 3 days and measured on day 7; type: functional, organism-based; conditions: Salmonella enterica subsp. enterica serovar Typhimurium, time 7.0 day
RAW264.7 [9] = assay: Anti-inflammatory activity in mouse RAW264.7 cells assessed as inhibition of LPS-induced TNF-alpha mRNA expression at 15 ug/ml preincubated with compound for 30 mins followed by LPS stimulation and measured after 4 hrs by RT-PCR analysis; type: functional, cell-based; conditions: dose 15.0 µg/ml, time 4.5 hrs
Lipid bilayer = assay: Induction of outer membrane permeabilization in Salmonella typhimurium DT104 at 0.625 to 15 microg/ml by NPN uptake based fluorescence spectrophotometric analysis; conditions: Salmonella enterica subsp. enterica serovar Typhimurium, dose 0.625-15 µg/ml
Staphylococcus aureus [10] = assay: Antibacterial activity against Staphylococcus aureus ATCC 29213 incubated overnight by standard microtiter dilution method; type: functional
Salmonella typhimurium [11] = assay: Antibacterial activity against Salmonella typhimurium DT104 ATCC 700408 incubated overnight by standard microtiter dilution method; type: functional, Salmonella enterica subsp. enterica serovar Typhimurium; conditions: Salmonella enterica
Salmonella typhimurium [12] = assay: Antibacterial activity against Salmonella typhimurium DT104 infected in ICR mouse model assessed as reduction in bacterial translocation to liver at 2 mg/kg, ip administered for 3 days and measured on day 7 by serial dilution method; type: functional, organism-based; conditions: Salmonella enterica subsp. enterica serovar Typhimurium, time 7.0 day
Cell membrane [13] = assay: Induction of membrane damage in Salmonella typhimurium DT104 assessed as membrane devastation at 1 times of MIC incubated for 60 mins by atomic force microscopic analysis; type: subcellular; conditions: Salmonella enterica subsp. enterica serovar Typhimurium
RAW264.7 [14] = assay: Anti-inflammatory activity in mouse RAW264.7 cells assessed as inhibition of LPS-induced IL-8 mRNA expression at 15 ug/ml preincubated with compound for 30 mins followed by LPS stimulation and measured after 4 hrs by RT-PCR analysis; type: functional, cell-based; conditions: dose 15.0 µg/ml, time 4.5 hrs
[15] = Antibacterial activity against Salmonella enterica subsp. enterica serovar Choleraesuis CICC 21493 incubated overnight by standard microtiter dilution method; type: functional
[16] = Hemolytic activity in human Red blood cells assessed as hemolysis at 128 ug/ml incubated for 1 hrs by absorbance based microplate reader analysis relative to control; type: toxicity, cell-based, Erythrocyte; conditions: red blood cells (erythrocytes), at 128 µg/mL, read-out: Activity
Enterococcus faecalis = assay: Antibacterial activity against Enterococcus faecalis ATCC 29212 incubated overnight by standard microtiter dilution method; type: functional
Staphylococcus aureus [17] = assay: Antibacterial activity against methicillin-resistant Staphylococcus aureus ATCC 43300 incubated overnight by standard microtiter dilution method; type: functional
Salmonella typhimurium [18] = assay: Antibacterial activity against Salmonella typhimurium DT104 assessed as reduction in IL-15 mRNA level in ileum at 20 mg/kg, ip administered for 3 days and measured on day 7 by RT-PCR analysis; type: functional, organism-based; conditions: Salmonella enterica subsp. enterica serovar Typhimurium, time 7.0 day
Cell membrane [19] = assay: Disruption of membrane integrity in Salmonella typhimurium DT104 assessed as increase in red fluorescence at 1 times of MIC incubated for 60 mins by PI and SYTO9 staining based confocal laser scanning microscopic analysis; type: subcellular; conditions: Salmonella enterica subsp. enterica serovar Typhimurium
[20] = Antibacterial activity against Salmonella paratyphi C CICC 21512 incubated overnight by standard microtiter dilution method; type: functional, Salmonella enterica subsp. enterica serovar Paratyphi C; conditions: Salmonella enterica
Salmonella typhimurium [21] = assay: Antibacterial activity against multi-drug resistant Salmonella typhimurium DT104 assessed as inhibition of bacterial growth at 0.5 to 2 times of MIC by MH agar based serial dilution method; type: functional, organism-based; conditions: Salmonella enterica subsp. enterica serovar Typhimurium, time <= 120.0 min, TDE = time-dependent effect
Salmonella typhimurium [22] = assay: Antibacterial activity against Salmonella typhimurium DT104 in the presence of FeCl3 by MH broth based assay; type: functional, Salmonella enterica subsp. enterica serovar Typhimurium; conditions: Salmonella enterica
Salmonella typhimurium [23] = assay: Antibacterial activity against Salmonella typhimurium DT104 assessed as reduction in TNF-alpha production in serum at 20 mg/kg, ip administered for 3 days and measured on day 7; type: functional, organism-based; conditions: Salmonella enterica subsp. enterica serovar Typhimurium, time 7.0 day
Cell membrane [24] = assay: Induction of membrane damage in Salmonella typhimurium DT104 assessed as membrane creping at 1 times of MIC incubated for 60 mins by atomic force microscopic analysis; type: subcellular; conditions: Salmonella enterica subsp. enterica serovar Typhimurium
Salmonella typhimurium [25] = assay: Antibacterial activity against Salmonella typhimurium DT104 in the presence of NH4Cl by MH broth based assay; type: functional, Salmonella enterica subsp. enterica serovar Typhimurium; conditions: Salmonella enterica
[26] = tested on: Staphylococcus epidermidis; assay: Antibacterial activity against methicillin-resistant Staphylococcus epidermidis ATCC 12228 incubated overnight by standard microtiter dilution method; type: functional
Salmonella typhimurium [27] = assay: Antibacterial activity against Salmonella typhimurium DT104 in the presence of CaCl2 by MH broth based assay; type: functional, Salmonella enterica subsp. enterica serovar Typhimurium; conditions: Salmonella enterica
Cell membrane [28] = assay: Induction of membrane damage in Salmonella typhimurium DT104 assessed as cytoplasmic outflow at 1 times of MIC incubated for 15 mins by confocal laser scanning microscopic analysis; type: subcellular; conditions: Salmonella enterica subsp. enterica serovar Typhimurium
RAW264.7 [29] = assay: Inhibition of LPS-stimulated NO production in mouse RAW264.7 cells incubated for 24 hrs by Griess reagent based analysis; type: functional, cell-based; conditions: dose 1-128 µg/ml
Salmonella typhimurium [30] = assay: Antibacterial activity against Salmonella typhimurium DT104 assessed as increase in ZO-2 mRNA level in colon at 20 mg/kg, ip administered for 3 days and measured on day 7 by RT-PCR analysis; type: functional, organism-based; conditions: Salmonella enterica subsp. enterica serovar Typhimurium, time 7.0 day
Salmonella enteritidis = assay: Antibacterial activity against Salmonella enteritidis CICC 21527 incubated overnight by standard microtiter dilution method; type: functional, Salmonella enterica subsp. enterica serovar Enteritidis; conditions: Salmonella enterica
Salmonella typhimurium [31] = assay: Antibacterial activity against Salmonella typhimurium DT104 assessed as increase in occludin mRNA level in colon at 20 mg/kg, ip administered for 3 days and measured on day 7 by RT-PCR analysis; type: functional, organism-based; conditions: Salmonella enterica subsp. enterica serovar Typhimurium, time 7.0 day
Salmonella typhimurium [32] = assay: Antibacterial activity against Salmonella typhimurium DT104 assessed as reduction in IL-8 mRNA level in ileum at 20 mg/kg, ip administered for 3 days and measured on day 7 by RT-PCR analysis; type: functional, organism-based; conditions: Salmonella enterica subsp. enterica serovar Typhimurium, time 7.0 day
RAW264.7 [33] = assay: Anti-inflammatory activity in mouse RAW264.7 cells assessed as inhibition of LPS-induced IL-10 mRNA expression at 15 ug/ml preincubated with compound for 30 mins followed by LPS stimulation and measured after 4 hrs by RT-PCR analysis; type: functional, cell-based; conditions: dose 15.0 µg/ml, time 4.5 hrs

Structure (SMILES): C[C@@H](O)[C@H](NC(=O)[C@H](CS)NC(=O)[C@H](CCCCN)NC(=O)[C@H](Cc1c[nH]c2ccccc12)NC(=O)[C@H](CCCCN)NC(=O)[C@@H](N)Cc1c[nH]c2ccccc12)C(=O)N[C@@H](CCCCN)C(=O)N[C@@H](CO)C(=O)NCC(=O)N[C@@H](CS)C(=O)N[C@@H](CCCCN)C(=O)N[C@@H](Cc1c[nH]c2ccccc12)C(=O)N[C@@H](CCCCN)C(=O)N[C@@H](Cc1c[nH]c2ccccc12)C(N)=O (H-WKWKCTKSGCKWKW-NH2)
- Activity (Salmonella typhimurium [1]): Active
- Activity (Salmonella typhimurium [2]): Active
- MIC (Salmonella typhimurium [3]): 4 µg/mL (≈ 2.16 µM)
- Activity (Cell membrane [4]): Active
- Activity (Cell membrane [5]): Active
- MIC (Salmonella typhimurium [6]): 8 µg/mL (≈ 4.31 µM)
- Activity (Salmonella typhimurium [7]): Active
- Activity (Salmonella typhimurium [8]): Active
- inhibition (RAW264.7 [9]): Active
- Activity (Lipid bilayer): Active
- MIC (Staphylococcus aureus [10]): 4 µg/mL (≈ 2.16 µM)
- MIC (Salmonella typhimurium [11]): 4 µg/mL (≈ 2.16 µM)
- Activity (Salmonella typhimurium [12]): Active
- Activity (Cell membrane [13]): Active
- inhibition (RAW264.7 [14]): Active
- MIC [15]: 8 µg/mL (≈ 4.31 µM)
- hemolysis at 1 h, 128 ug/ml [16]: < 10%
- MIC (Enterococcus faecalis): 2 µg/mL (≈ 1.08 µM)
- MIC (Staphylococcus aureus [17]): 8 µg/mL (≈ 4.31 µM)
- Activity (Salmonella typhimurium [18]): Active
- Activity (Cell membrane [19]): Active
- MIC [20]: 4 µg/mL (≈ 2.16 µM)
- Activity (Salmonella typhimurium [21]): Tde
- MIC (Salmonella typhimurium [22]): 8 µg/mL
- Activity (Salmonella typhimurium [23]): Active
- Activity (Cell membrane [24]): Active
- MIC (Salmonella typhimurium [25]): 4 µg/mL
- MIC [26]: 4 µg/mL (≈ 2.16 µM)
- MIC (Salmonella typhimurium [27]): 8 µg/mL
- Activity (Cell membrane [28]): Active
- inhibition (RAW264.7 [29]): Dose-Dependent Effect
- Activity (Salmonella typhimurium [30]): Active
- MIC (Salmonella enteritidis): 8 µg/mL (≈ 4.31 µM)
- Activity (Salmonella typhimurium [31]): Active
- Activity (Salmonella typhimurium [32]): Active
- inhibition (RAW264.7 [33]): Active
